Earlier results as cited in PMC7318425 (Bioorganic & medicinal chemistry letters, 2019).

System: off-target kinases
Conditions: KinomeScan, compared with ibrutinib

Structure (SMILES): Nc1ncnc2c1c(-c1ccc(Oc3ccccc3)cc1)nn2C1CCN(CCOCCOCC(=O)Nc2ccc3c(c2)C(=O)N(C2CCC(=O)NC2=O)C3=O)CC1 (stereo not shown) [MT802]
- off-target kinase binding: binds fewer off-target kinases than ibrutinib
